{"source": "patent US9034336B2", "about": "“Immunomodulators and immunomodulator conjugates” (Regents of the University of Minnesota, priority 2011, dated 2015)", "key": {"[1]": {"system": "human monocyte-derived dendritic cells (MoDC)", "experiment": "Human MoDC immunostaining and flow cytometric analysis (maturation, DC phenotype)", "type": "cell-based", "description": "(§1) 1. Dendritic cells were generated from peripheral blood monocytes as described (Brossart P, et al. Blood. 1998; 92: 4238-4247). In brief, CD14 positive monocytes were from a healthy human peripheral blood mononuclear cells (PBMC) obtained via isolation with Lymphocyte Separation Medium (Mediatech, Inc, Manassas, Va.) and after purification with CD14 microbeads from Miltenyi Biotec Inc (Aubun, Calif.). The CD14 positive monocytes (>95% CD14) were cultured into immature monocyte-derived dendritic cells (MoDC) by further 6 day culture with GM-CSF (100 ng/ml) and IL-4 (100 ng/ml)(R&D, MN). 2. 0.1 million of MoDC were plated into 96-well plate and stimulated for 48 hours with 5 different concentration of following TLRs: 412, 420, 421, 414 and 415 at concentration of 0, 0.325, 1.3, 5.2 and 20.8 nmol/ml in triplicate. In other experiments (FIGS. 34 and 35), fresh PBMC (not DC) were used as the responder cells to the indicated compounds and cytokines levels were measured by bead array according to the manufacture's protocol (BD biosciences).\n48 hours after stimulation, the cells were stained with anti-HLA-DR, CD11c, CD-86, CD80, CD83, CD8a, CD123 and relevant isotype control (eBioscience, San Diego, Calif.). The cells were loaded on FACS-canto II and analyzed with FACSDiva and Flowjo"}, "[2]": {"system": "human monocyte-derived dendritic cells (MoDC)", "experiment": "Human MoDC inflammatory cytokines by cytometric bead assay", "type": "cell-based", "description": "as §1\nThe supernatant were harvested 48 hours after stimulation with TLRs. Inflammatory cytokines level was identified with CBA, following the producer's instruction (BD, San Jose, Calif.)"}}, "note": "Entries after “also recorded” stand apart in the source; their conditions may differ."}
{"smiles": "CCCCc1nc2c(N)nc3cc(C(=O)OC)ccc3c2n1CC(C)(C)O", "note": "[Compound 420, 4-Amino-2-butyl-1-(2-hydroxy-2-methylpropyl)-7-methoxycarbonyl-1H-imidazo[4,5-c]quinoline]", "values": [{"measurement": "differentiation of myeloid DC into CD123+ plasmacytoid DC", "setting": "[1]; human MoDC (FIG. 4)", "result": "did not"}, {"measurement": "MoDC maturation (raising CD86 co-stimulator level and CD83)", "setting": "[1]; human MoDC, 48 hours after stimulation", "result": "same efficiency as Resiquimod and significantly stronger than imiquimod"}, {"measurement": "IL-1β induction / secretion", "setting": "[2]; human MoDC (FIG. 11)", "result": "induction of IL-1β; also recorded: the only drug tested that caused appreciable IL-1b secretion"}, {"measurement": "production of inflammatory cytokines", "setting": "[2]; human MoDC, supernatant 48 hours after stimulation", "result": "higher production of “inflammatory cytokines”, compared to imiquimod (but less stronger than Resquimod)"}]}
